# Source: PubChem BioAssay (NCI)
#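 Assay format: 96-well plates, 48-hour exposure. TGI is the concentration that stops growth completely.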 Starred links: 1 amine or outer side, 2 acyl side, 3 side chain; linkers in the order of their positions; H or OH if unused. Positions of bridges follow the written chain, without caps; N, C: chain ends. Non-standard residues stand in square brackets, D forms with d. Residues, ends and D or L forms follow the SMILES beside them. *: point of attachment. X3 = CC(C)C(C)C(C(=O)[*:2])N(C)[*:1]; Picolinoyl(3-OH) = O=C(c1ncccc1O)*; NMePhg = CN[CH](C(=O)O)c1ccccc1; Hyp = O=C(O)[CH]1C[CH](O)CN1; Sar = CNCC(=O)O
# Columns and labels:
# Experiment in all cases: NCI tumour cell line growth inhibition, 48 h
# DLD-1 colon = system: DLD-1 colon
# DMS 114 small cell lung = system: DMS 114 small cell lung
# DMS 273 small cell lung = system: DMS 273 small cell lung
# HOP-18 NSCLC = system: HOP-18 NSCLC
# HOP-92 NSCLC = system: HOP-92 NSCLC
# KM20L2 colon = system: KM20L2 colon
# M19-MEL melanoma = system: M19-MEL melanoma
# NCI-H226 lung = system: NCI-H226 lung
# NCI-H23 lung = system: NCI-H23 lung
# P388/ADR leukemia = system: P388/ADR leukemia
# SN12K1 renal = system: SN12K1 renal
# SNB-78 CNS = system: SNB-78 CNS
# UACC-257 melanoma = system: UACC-257 melanoma
# XF 498 CNS = system: XF 498 CNS
# 786-0 renal = system: 786-0 renal
# A498 renal = system: A498 renal
# A549 NSCLC = system: A549 NSCLC
# ACHN renal = system: ACHN renal
# CCRF-CEM leukemia = system: CCRF-CEM leukemia
# COLO 205 colon = system: COLO 205 colon
# EKVX NSCLC = system: EKVX NSCLC
# HCC-2998 colon = system: HCC-2998 colon
# HCT-116 colon = system: HCT-116 colon
# HCT-15 colon = system: HCT-15 colon
# HL-60(TB) leukemia = system: HL-60(TB) leukemia
# HOP-62 NSCLC = system: HOP-62 NSCLC
# IGROV1 ovarian = system: IGROV1 ovarian
# K-562 leukemia = system: K-562 leukemia
# KM12 colon = system: KM12 colon
# LOX IMVI melanoma = system: LOX IMVI melanoma
# LXFL 529 NSCLC = system: LXFL 529 NSCLC
# M14 melanoma = system: M14 melanoma
# MALME-3M melanoma = system: MALME-3M melanoma
# MOLT-4 leukemia = system: MOLT-4 leukemia
# NCI-H460 lung = system: NCI-H460 lung
# NCI-H522 lung = system: NCI-H522 lung
# OVCAR-3 ovarian = system: OVCAR-3 ovarian
# OVCAR-5 ovarian = system: OVCAR-5 ovarian
# OVCAR-8 ovarian = system: OVCAR-8 ovarian
# RPMI-8226 leukemia = system: RPMI-8226 leukemia
# RXF 393 renal = system: RXF 393 renal
# SF-268 CNS = system: SF-268 CNS
# SF-295 CNS = system: SF-295 CNS
# SF-539 CNS = system: SF-539 CNS
# SK-MEL-2 melanoma = system: SK-MEL-2 melanoma
# SK-MEL-28 melanoma = system: SK-MEL-28 melanoma
# SK-MEL-5 melanoma = system: SK-MEL-5 melanoma
# SK-OV-3 ovarian = system: SK-OV-3 ovarian
# SN12C renal = system: SN12C renal
# SNB-19 CNS = system: SNB-19 CNS
# SR leukemia = system: SR leukemia
# SW-620 colon = system: SW-620 colon
# TK-10 renal = system: TK-10 renal
# U251 CNS = system: U251 CNS
# UACC-62 melanoma = system: UACC-62 melanoma
# UO-31 renal = system: UO-31 renal
# HT29 colon = system: HT29 colon
# OVCAR-4 ovarian = system: OVCAR-4 ovarian
# SNB-75 CNS = system: SNB-75 CNS
smiles,measurement,setting,value
CC(C)CC1NC(=O)C(NC(=O)c2ncccc2O)C(C)OC(=O)C(c2ccccc2)N(C)C(=O)C(C)NC(=O)C(C(C)C(C)C)N(C)C(=O)CN(C)C(=O)C2CC(O)CN2C1=O (configuration not stated) ({Picolinoyl(3-OH)}-TL[Hyp][Sar][X3]A[NMePhg]; ester 1-C; configuration not given here),TGI,DLD-1 colon,> 125 µM
same,TGI,DMS 114 small cell lung,> 125 µM
same,TGI,DMS 273 small cell lung,> 125 µM
same,TGI,HOP-18 NSCLC,> 125 µM
same,TGI,HOP-92 NSCLC,> 125 µM
same,TGI,KM20L2 colon,> 12.5 µM
same,TGI,M19-MEL melanoma,> 125 µM
same,TGI,NCI-H226 lung,> 125 µM
same,TGI,NCI-H23 lung,> 125 µM
same,TGI,P388/ADR leukemia,> 125 µM
same,TGI,SN12K1 renal,> 125 µM
same,TGI,SNB-78 CNS,> 125 µM
same,TGI,UACC-257 melanoma,> 125 µM
same,TGI,XF 498 CNS,> 120 µM
O=Cn1c2ccccc2c2ccccc21,TGI,786-0 renal,> 100 µM
same,TGI,A498 renal,> 100 µM
same,TGI,A549 NSCLC,> 100 µM
same,TGI,ACHN renal,> 100 µM
same,TGI,CCRF-CEM leukemia,> 100 µM
same,TGI,COLO 205 colon,> 100 µM
same,TGI,DLD-1 colon,> 100 µM
same,TGI,DMS 114 small cell lung,> 100 µM
same,TGI,DMS 273 small cell lung,> 100 µM
same,TGI,EKVX NSCLC,> 100 µM
same,TGI,HCC-2998 colon,> 100 µM
same,TGI,HCT-116 colon,> 100 µM
same,TGI,HCT-15 colon,> 100 µM
same,TGI,HL-60(TB) leukemia,> 100 µM
same,TGI,HOP-18 NSCLC,> 100 µM
same,TGI,HOP-62 NSCLC,> 100 µM
same,TGI,HOP-92 NSCLC,> 100 µM
same,TGI,IGROV1 ovarian,> 100 µM
same,TGI,K-562 leukemia,> 100 µM
same,TGI,KM12 colon,> 100 µM
same,TGI,KM20L2 colon,> 100 µM
same,TGI,LOX IMVI melanoma,> 100 µM
same,TGI,LXFL 529 NSCLC,> 100 µM
same,TGI,M14 melanoma,> 100 µM
same,TGI,M19-MEL melanoma,> 100 µM
same,TGI,MALME-3M melanoma,> 100 µM
same,TGI,MOLT-4 leukemia,> 100 µM
same,TGI,NCI-H23 lung,> 100 µM
same,TGI,NCI-H460 lung,> 100 µM
same,TGI,NCI-H522 lung,> 100 µM
same,TGI,OVCAR-3 ovarian,> 100 µM
same,TGI,OVCAR-5 ovarian,> 100 µM
same,TGI,OVCAR-8 ovarian,> 100 µM
same,TGI,RPMI-8226 leukemia,> 100 µM
same,TGI,RXF 393 renal,> 100 µM
same,TGI,SF-268 CNS,> 100 µM
same,TGI,SF-295 CNS,> 100 µM
same,TGI,SF-539 CNS,> 100 µM
same,TGI,SK-MEL-2 melanoma,> 100 µM
same,TGI,SK-MEL-28 melanoma,> 100 µM
same,TGI,SK-MEL-5 melanoma,> 100 µM
same,TGI,SK-OV-3 ovarian,> 100 µM
same,TGI,SN12C renal,> 100 µM
same,TGI,SNB-19 CNS,> 100 µM
same,TGI,SNB-78 CNS,> 100 µM
same,TGI,SR leukemia,> 100 µM
same,TGI,SW-620 colon,> 100 µM
same,TGI,TK-10 renal,> 100 µM
same,TGI,U251 CNS,> 100 µM
same,TGI,UACC-257 melanoma,> 100 µM
same,TGI,UACC-62 melanoma,> 100 µM
same,TGI,UO-31 renal,> 100 µM
same,TGI,XF 498 CNS,> 100 µM
CC(C)(C1=NC(C(C)(C)C)CO1)C1=N[C@@H](C(C)(C)C)CO1 (some centres not stated),TGI,786-0 renal,> 100 µM
same,TGI,A549 NSCLC,> 100 µM
same,TGI,ACHN renal,> 100 µM
same,TGI,CCRF-CEM leukemia,> 100 µM
same,TGI,COLO 205 colon,> 100 µM
same,TGI,DLD-1 colon,> 100 µM
same,TGI,DMS 114 small cell lung,> 100 µM
same,TGI,DMS 273 small cell lung,> 100 µM
same,TGI,EKVX NSCLC,> 100 µM
same,TGI,HCC-2998 colon,> 100 µM
same,TGI,HCT-116 colon,> 100 µM
same,TGI,HCT-15 colon,> 100 µM
same,TGI,HL-60(TB) leukemia,> 100 µM
same,TGI,HOP-18 NSCLC,> 100 µM
same,TGI,HOP-62 NSCLC,> 100 µM
same,TGI,HOP-92 NSCLC,> 100 µM
same,TGI,HT29 colon,> 100 µM
same,TGI,IGROV1 ovarian,> 100 µM
same,TGI,K-562 leukemia,> 100 µM
same,TGI,KM12 colon,> 100 µM
same,TGI,KM20L2 colon,> 100 µM
same,TGI,LOX IMVI melanoma,> 100 µM
same,TGI,LXFL 529 NSCLC,> 100 µM
same,TGI,M14 melanoma,> 100 µM
same,TGI,M19-MEL melanoma,> 100 µM
same,TGI,MALME-3M melanoma,> 100 µM
same,TGI,MOLT-4 leukemia,> 100 µM
same,TGI,NCI-H226 lung,> 100 µM
same,TGI,NCI-H23 lung,> 100 µM
same,TGI,NCI-H460 lung,> 100 µM
same,TGI,NCI-H522 lung,> 100 µM
same,TGI,OVCAR-3 ovarian,> 100 µM
same,TGI,OVCAR-4 ovarian,> 100 µM
same,TGI,OVCAR-5 ovarian,> 100 µM
same,TGI,OVCAR-8 ovarian,> 100 µM
same,TGI,RPMI-8226 leukemia,> 100 µM
same,TGI,RXF 393 renal,> 100 µM
same,TGI,SF-268 CNS,> 100 µM
same,TGI,SF-295 CNS,> 100 µM
same,TGI,SF-539 CNS,> 100 µM
same,TGI,SK-MEL-2 melanoma,> 100 µM
same,TGI,SK-MEL-28 melanoma,> 100 µM
same,TGI,SK-MEL-5 melanoma,> 100 µM
same,TGI,SK-OV-3 ovarian,> 100 µM
same,TGI,SN12C renal,> 100 µM
same,TGI,SNB-19 CNS,> 100 µM
same,TGI,SNB-75 CNS,> 100 µM
same,TGI,SR leukemia,> 100 µM
same,TGI,SW-620 colon,> 100 µM
same,TGI,TK-10 renal,> 100 µM
same,TGI,U251 CNS,> 100 µM
same,TGI,UACC-257 melanoma,> 100 µM
same,TGI,UACC-62 melanoma,> 100 µM
same,TGI,UO-31 renal,> 100 µM
same,TGI,XF 498 CNS,> 100 µM
